According to ChEMBL document CHEMBL1201862, “PubChem BioAssay data set” (2004):
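The compound was tested at five concentrations on cells cultured in 96-well plates, with a 48-hour exposure period. GI50 is the concentration that inhibits growth by half.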 The source made the active and inactive calls. Cut-off read from the data, not from the text of the source: active = GI50 up to about 1.1 µM and inactive = higher.

Columns and labels:
Assay in all cases: growth of human tumour cells (NCI), 48 h
EKVX = tested on: EKVX
SK-OV-3 = tested on: SK-OV-3
HCT-15 = tested on: HCT-15
HOP-62 = tested on: HOP-62
HL-60 = tested on: HL-60
OVCAR-4 = tested on: OVCAR-4
ACHN = tested on: ACHN
SF-539 = tested on: SF-539
SW-620 = tested on: SW-620
KM12 = tested on: KM12
OVCAR-8 = tested on: OVCAR-8
RXF 393 = tested on: RXF 393
OVCAR-5 = tested on: OVCAR-5
NCI-H522 = tested on: NCI-H522
SN12C = tested on: SN12C
A549 = tested on: A549
BT-549 = tested on: BT-549
SK-MEL-5 = tested on: SK-MEL-5
RPMI-8226 = tested on: RPMI-8226
HCC 2998 = tested on: HCC 2998
SK-MEL-28 = tested on: SK-MEL-28
UO-31 = tested on: UO-31
COLO 205 = tested on: COLO 205
SNB-75 = tested on: SNB-75
MCF7 = tested on: MCF7
PC-3 = tested on: PC-3
OVCAR-3 = tested on: OVCAR-3
TK-10 = tested on: TK-10
MDA-N = tested on: MDA-N
MDA-MB-435 = tested on: MDA-MB-435
UACC-257 = tested on: UACC-257
DU-145 = tested on: DU-145
HCT-116 = tested on: HCT-116
CAKI-1 = tested on: CAKI-1
MDA-MB-231 = tested on: MDA-MB-231
SF-295 = tested on: SF-295
NCI-H460 = tested on: NCI-H460
Malme-3M = tested on: Malme-3M
NCI-H23 = tested on: NCI-H23
Hs-578T = tested on: Hs-578T
SK-MEL-2 = tested on: SK-MEL-2
K562 = tested on: K562
U-251 = tested on: U-251
786-0 = tested on: 786-0
T47D = tested on: T47D
MOLT-4 = tested on: MOLT-4
SNB-19 = tested on: SNB-19
SF-268 = tested on: SF-268
LOX IMVI = tested on: LOX IMVI
NCI/ADR-RES = tested on: NCI/ADR-RES
IGROV-1 = tested on: IGROV-1
NCI-H226 = tested on: NCI-H226
UACC-62 = tested on: UACC-62
M14 = tested on: M14
HT-29 = tested on: HT-29
SR = tested on: SR
HOP-92 = tested on: HOP-92
CCRF-CEM = tested on: CCRF-CEM
A498 = tested on: A498

Measured: GI50

O=c1c2ccccc2nc(-c2cc3c(cc2Cl)Sc2nccn2S3(=O)=O)n1-c1ccccc1
12.9 µM: HCT-15
inactive: EKVX 21.4 µM | SK-OV-3 > 100 µM | HOP-62 18.2 µM | HL-60 4.13 µM | OVCAR-4 17.9 µM | ACHN > 100 µM | SF-539 20.4 µM | SW-620 13.5 µM | KM12 11.1 µM | OVCAR-8 12.3 µM | RXF 393 18.8 µM | OVCAR-5 > 100 µM | NCI-H522 > 100 µM | SN12C 45.5 µM | A549 > 100 µM | BT-549 41.1 µM | SK-MEL-5 45.3 µM | RPMI-8226 12.9 µM | HCC 2998 15.1 µM | SK-MEL-28 21.4 µM | UO-31 16.6 µM | COLO 205 > 100 µM | SNB-75 21.4 µM | MCF7 14.2 µM | PC-3 16.5 µM | OVCAR-3 15.9 µM | TK-10 21.5 µM | MDA-N 15.6 µM | MDA-MB-435 22.8 µM | UACC-257 18 µM | DU-145 20.8 µM | HCT-116 14.2 µM | CAKI-1 > 100 µM | MDA-MB-231 18.4 µM | SF-295 21.6 µM | NCI-H460 37.3 µM | Malme-3M > 100 µM | NCI-H23 62.5 µM | Hs-578T 12.2 µM | SK-MEL-2 18.5 µM | K562 18.8 µM | U-251 16.8 µM | 786-0 30.1 µM | T47D 8.93 µM | MOLT-4 > 100 µM | SNB-19 40.8 µM | SF-268 7.1 µM | LOX IMVI 88.7 µM | NCI/ADR-RES 19.1 µM | IGROV-1 42.6 µM | NCI-H226 > 100 µM | UACC-62 26.4 µM | M14 > 100 µM | HT-29 40.5 µM | SR 67.6 µM | HOP-92 22.9 µM

CCOC(=O)c1cc2c3ccn(Cc4ccccc4)c3c3c(C)noc3c2[nH]1
inactive: EKVX > 100 µM | HOP-62 > 100 µM | HL-60 > 100 µM | CCRF-CEM > 100 µM | OVCAR-4 > 100 µM | ACHN > 100 µM | SW-620 > 100 µM | KM12 > 100 µM | OVCAR-8 > 100 µM | RXF 393 > 100 µM | OVCAR-5 > 100 µM | NCI-H522 > 100 µM | SN12C > 100 µM | A549 > 100 µM | BT-549 > 100 µM | SK-MEL-5 > 100 µM | RPMI-8226 > 100 µM | HCC 2998 > 100 µM | SK-MEL-28 > 100 µM | UO-31 > 100 µM | COLO 205 > 100 µM | A498 > 100 µM | SNB-75 74.6 µM | MCF7 > 100 µM | PC-3 > 100 µM | OVCAR-3 > 100 µM | TK-10 > 100 µM | MDA-N > 100 µM | MDA-MB-435 > 100 µM | UACC-257 > 100 µM | DU-145 > 100 µM | HCT-116 > 100 µM | CAKI-1 > 100 µM | MDA-MB-231 > 100 µM | SF-295 > 100 µM | NCI-H460 > 100 µM | Malme-3M > 100 µM | NCI-H23 > 100 µM | Hs-578T > 100 µM | SK-MEL-2 > 100 µM | K562 > 100 µM | U-251 > 100 µM | 786-0 > 100 µM | T47D > 100 µM | MOLT-4 > 100 µM | SNB-19 > 100 µM | SF-268 > 100 µM | LOX IMVI > 100 µM | NCI/ADR-RES > 100 µM | IGROV-1 > 100 µM | NCI-H226 > 100 µM | UACC-62 > 100 µM | M14 > 100 µM | SR > 100 µM
> 100 µM: HCT-15

O=C1CCc2ccc3c(c21)CC1(Cc2ccccc2C1)C3
inactive: SK-OV-3 41.4 µM | HOP-62 6.37 µM | HL-60 2.11 µM | CCRF-CEM 10.6 µM | OVCAR-4 10.5 µM | ACHN 5.27 µM | SF-539 5.45 µM | SW-620 4.47 µM | KM12 7.52 µM | OVCAR-8 7.62 µM | OVCAR-5 11.3 µM | NCI-H522 10.2 µM | SN12C 4.8 µM | A549 7.78 µM | BT-549 10 µM | SK-MEL-5 3.38 µM | RPMI-8226 6.55 µM | HCC 2998 14.4 µM | SK-MEL-28 4.37 µM | UO-31 3.45 µM | COLO 205 16.2 µM | SNB-75 14.4 µM | MCF7 19.2 µM | PC-3 8.73 µM | OVCAR-3 4.01 µM | TK-10 11.1 µM | MDA-N 2.69 µM | MDA-MB-435 5.98 µM | UACC-257 5.48 µM | DU-145 13 µM | HCT-116 3.98 µM | CAKI-1 5.24 µM | MDA-MB-231 4.45 µM | SF-295 3.72 µM | NCI-H460 2.57 µM | Malme-3M 10.5 µM | NCI-H23 11.6 µM | Hs-578T 25.8 µM | SK-MEL-2 14.2 µM | U-251 8.05 µM | 786-0 6.58 µM | T47D 8.55 µM | MOLT-4 3.8 µM | SNB-19 23.1 µM | SF-268 12.7 µM | LOX IMVI 2.59 µM | NCI/ADR-RES 5.5 µM | IGROV-1 13.3 µM | NCI-H226 19.1 µM | UACC-62 7.1 µM | M14 4.73 µM | HT-29 3.71 µM | SR 3.58 µM | HOP-92 5.96 µM
4.67 µM: HCT-15
